# Reference: US20210221866A1, “PROTEASE-RESISTANT LIPIDATED GLP-1 ANALOGS” (MEDIMMUNE LIMITED, priority 2015, published 2021)
# Where two headings read alike, the source gives them in different places. Numbered stars: 1 amine (or outer) side, 2 acyl side, 3 side chain; on linkers, the order of the positions; unused ones are H or OH. Square brackets hold non-standard residues; d marks the D form. Side chains are listed from the residue outwards. Peptide text beside a SMILES is read from it. * marks the point of attachment. C18 diacid = O=C(O)CCCCCCCCCCCCCCCCC(=O)*; γGlu = O=C(O)[C@H](CCC(=O)[*:2])N[*:1]; αMeF = C[C@](N)(Cc1ccccc1)C(=O)O; αMeK = C[C@](N)(CCCCN)C(=O)O; Lauroyl = CCCCCCCCCCCC(=O)*; αMeS = C[C@](N)(CO)C(=O)O; AEEA = NCCOCCOCC(=O)O; Aib = CC(C)(N)C(=O)O
# Legend:
# Type in all cases: cell-based
# [1] = target: T1, GLP-1R (INS1e cells) (Rattus norvegicus, UniProt P32301); assay: INS1e assay, cAMP activity at GLP-1R
# T1 construct: endogenous in cells; host or cells: INS1e cells
# T1 sequence (P32301 22-463): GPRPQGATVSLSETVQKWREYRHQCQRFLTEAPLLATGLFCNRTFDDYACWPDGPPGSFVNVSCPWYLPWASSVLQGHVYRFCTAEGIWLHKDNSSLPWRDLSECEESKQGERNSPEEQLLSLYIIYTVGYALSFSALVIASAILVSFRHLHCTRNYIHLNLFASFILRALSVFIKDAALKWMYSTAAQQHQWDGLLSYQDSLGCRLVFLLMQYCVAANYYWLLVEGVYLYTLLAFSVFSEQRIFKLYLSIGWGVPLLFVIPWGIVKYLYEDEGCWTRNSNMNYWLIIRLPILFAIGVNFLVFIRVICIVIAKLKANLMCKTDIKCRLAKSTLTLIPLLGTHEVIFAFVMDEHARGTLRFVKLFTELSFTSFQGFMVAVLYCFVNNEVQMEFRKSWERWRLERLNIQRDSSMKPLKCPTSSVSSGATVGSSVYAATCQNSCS
# [2] = target: T2, human glucagon receptor (GCGR) (Homo sapiens, UniProt P47871); assay: cAMP assay, human GCGR cells
# T2 construct: expressed in transfected cells; host or cells: HEK293 cells or CHO cells
# T2 sequence (P47871 26-477): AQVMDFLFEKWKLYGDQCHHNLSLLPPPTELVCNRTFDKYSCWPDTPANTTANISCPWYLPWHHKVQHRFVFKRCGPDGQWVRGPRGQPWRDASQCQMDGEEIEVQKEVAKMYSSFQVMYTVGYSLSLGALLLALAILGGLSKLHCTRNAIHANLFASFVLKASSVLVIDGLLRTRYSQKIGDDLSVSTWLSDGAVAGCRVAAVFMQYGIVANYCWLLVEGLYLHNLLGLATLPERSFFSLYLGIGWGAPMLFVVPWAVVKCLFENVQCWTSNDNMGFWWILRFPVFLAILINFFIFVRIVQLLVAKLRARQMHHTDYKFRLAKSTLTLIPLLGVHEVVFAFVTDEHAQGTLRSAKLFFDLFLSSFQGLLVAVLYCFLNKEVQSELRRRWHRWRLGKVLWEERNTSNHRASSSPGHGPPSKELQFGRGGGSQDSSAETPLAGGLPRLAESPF
# In short: (§1)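 Peptide-stimulated cAMP measured by two-step HTRF after a 30 min room-temperature incubation with receptor-expressing cells (hGLP-1R, hGIPR at 1×10^5 cells/ml; hGCGR at 2×10^5 cells/ml). Duplicate dilutions; EC50 from 4-parameter logistic fit of % Delta F.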
# [3] = target: T3, human GLP-1 receptor (GLP-1R) (Homo sapiens, UniProt P43220); assay: cAMP assay, human GLP-1R cells
# T3 construct: expressed in transfected cells; host or cells: HEK293 cells or CHO cells
# T3 sequence (P43220 24-463): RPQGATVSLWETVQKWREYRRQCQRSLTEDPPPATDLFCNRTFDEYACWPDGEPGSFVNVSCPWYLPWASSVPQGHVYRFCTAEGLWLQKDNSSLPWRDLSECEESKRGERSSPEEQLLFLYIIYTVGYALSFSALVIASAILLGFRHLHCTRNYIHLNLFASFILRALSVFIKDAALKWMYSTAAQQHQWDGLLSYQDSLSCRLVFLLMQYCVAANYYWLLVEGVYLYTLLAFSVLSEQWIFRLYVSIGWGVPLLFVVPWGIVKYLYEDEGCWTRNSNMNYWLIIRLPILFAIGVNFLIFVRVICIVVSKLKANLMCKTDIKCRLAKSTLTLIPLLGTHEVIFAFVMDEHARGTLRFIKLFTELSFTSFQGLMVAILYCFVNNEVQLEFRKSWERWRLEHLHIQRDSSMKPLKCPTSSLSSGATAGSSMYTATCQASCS
# In short: as §1
# [4] = target: T4, human glucose-dependent insulinotropic peptide receptor (GIPR) (Homo sapiens, UniProt P48546); assay: cAMP assay, human GIPR cells
# T4 construct: expressed in transfected cells; host or cells: HEK293 cells or CHO cells
# T4 sequence (P48546 22-466): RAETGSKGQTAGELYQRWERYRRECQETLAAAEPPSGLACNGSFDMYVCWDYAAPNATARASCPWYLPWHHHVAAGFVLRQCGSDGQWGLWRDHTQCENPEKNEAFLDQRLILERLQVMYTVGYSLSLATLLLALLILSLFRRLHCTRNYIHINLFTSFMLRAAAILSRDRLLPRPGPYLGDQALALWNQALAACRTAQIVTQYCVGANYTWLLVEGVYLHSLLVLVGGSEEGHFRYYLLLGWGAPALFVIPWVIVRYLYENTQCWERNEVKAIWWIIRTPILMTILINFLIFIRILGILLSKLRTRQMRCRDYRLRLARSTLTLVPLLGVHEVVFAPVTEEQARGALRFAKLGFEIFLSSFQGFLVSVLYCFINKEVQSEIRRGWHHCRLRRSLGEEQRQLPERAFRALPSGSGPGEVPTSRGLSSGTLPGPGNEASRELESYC
# In short: as §1
# [5] = Table 8, substituted and mono-lipidated peptides, mean of n1 and n2, read-out: INS1e assay EC50 Mean pM GLP-1R
# [6] = Table 8, substituted and mono-lipidated peptides, replicate n1, read-out: INS1e assay EC50 GLP-1R n1
# [7] = Table 8, substituted and mono-lipidated peptides, replicate n2, read-out: INS1e assay EC50 GLP-1R n2
# [8] = cAMP activity, second determination (n2), read-out: Primary assay EC50 Gluc-R
# [9] = cAMP activity, first determination (n1), read-out: Primary assay EC50 GLP-1R n1
# [10] = cAMP activity, mean of n1 and n2, read-out: Mean pM GLP-1R
# [11] = cAMP activity, second determination (n2), read-out: Primary assay EC50 GLP-1R n2
# [12] = cAMP activity, first determination (n1), read-out: Primary assay EC50 GIP-R
# [13] = cAMP activity, second determination (n2), read-out: Primary assay EC50 GIP-R
"EC50 [1, 5] [pM]","EC50 [1, 6] [pM]","EC50 [1, 7] [pM]","EC50 [2, 8] [nM]","EC50 [3, 9] [pM]","EC50 [3, 10] [pM]","EC50 [3, 11] [pM]","EC50 [4, 12] [nM]","EC50 [4, 13] [nM]","EC50 ([1]; Table 10, bis-lipidated peptides, mean of n1 and n2, read-out: INS1e assay EC50 Mean pM GLP-1R) [pM]","EC50 ([1]; Table 10, bis-lipidated peptides, replicate n1, read-out: INS1e assay EC50 GLP-1R n1) [pM]","EC50 ([1]; Table 10, bis-lipidated peptides, replicate n2, read-out: INS1e assay EC50 GLP-1R n2) [pM]","EC50 ([2]; Table 9, bis-lipidated peptides, first replicate, read-out: Primary assay EC50 Gluc-R (n1)) [nM]","EC50 ([2]; Table 9, bis-lipidated peptides, second replicate, read-out: Primary assay EC50 Gluc-R (n2)) [nM]","EC50 ([3]; Table 9, bis-lipidated peptides, mean of n1 and n2, read-out: Primary assay EC50 Mean pM GLP-1R) [pM]","EC50 ([3]; Table 9, bis-lipidated peptides, replicate n1, read-out: Primary assay EC50 GLP-1R n1) [pM]","EC50 ([3]; Table 9, bis-lipidated peptides, replicate n2, read-out: Primary assay EC50 GLP-1R n2) [pM]","EC50 ([4]; Table 9, bis-lipidated peptides, first replicate, read-out: Primary assay EC50 GIP-R (n1)) [nM]","EC50 ([4]; Table 9, bis-lipidated peptides, second replicate, read-out: Primary assay EC50 GIP-R (n2)) [nM]",Structure (SMILES)
8440,11000,5880,≥ 24.9,58,54,49.3,≥ 25,≥ 24.9,,,,,,,,,,,CC[C@H](C)[C@H](NC(=O)[C@](C)(Cc1ccccc1)NC(=O)[C@H](CCC(=O)O)NC(=O)[C@](C)(CCCCN)NC(=O)[C@H](C)NC(=O)[C@H](C)NC(=O)[C@H](CCC(=O)O)NC(=O)CNC(=O)[C@H](CCC(=O)O)NC(=O)[C@H](CC(C)C)NC(=O)[C@](C)(Cc1ccccc1)NC(=O)[C@H](CO)NC(=O)[C@](C)(CO)NC(=O)[C@@H](NC(=O)[C@H](CC(=O)O)NC(=O)[C@H](CO)NC(=O)[C@@H](NC(=O)[C@](C)(Cc1ccccc1)NC(=O)[C@H](CO)NC(=O)CNC(=O)[C@H](CCC(=O)O)NC(=O)C(C)(C)NC(=O)[C@@H](N)Cc1c[nH]cn1)[C@@H](C)O)C(C)C)C(=O)N[C@@H](C)C(=O)N[C@@](C)(Cc1ccccc1)C(=O)N[C@H](C(=O)N[C@H](C(=O)N[C@@](C)(CCCCN)C(=O)NCC(=O)N[C@@H](CCCCNC(=O)COCCOCCNC(=O)COCCOCCNC(=O)CC[C@H](NC(=O)CCCCCCCCCCCCCCCCC(=O)O)C(=O)O)C(N)=O)C(C)C)C(C)C [compound 99] (H-H[Aib]EGS[αMeF]TSDV[αMeS]S[αMeF]LEGEAA[αMeK]E[αMeF]IA[αMeF]VV[αMeK]GK([AEEA-AEEA-γGlu-C18 diacid])-NH2; N-terminus assumed)
,,,,,,,,,1030,963,1100,≥ 22.6,≥ 22.6,12.8,18.2,7.37,≥ 22.6,≥ 22.6,CCCCCCCCCCCC(=O)N[C@@H](CCC(=O)NCCOCCOCC(=O)NCCOCCOCC(=O)NCCCC[C@H](NC(=O)[C@H](CO)NC(=O)[C@](C)(CO)NC(=O)[C@@H](NC(=O)[C@H](CC(=O)O)NC(=O)[C@H](CO)NC(=O)[C@@H](NC(=O)[C@](C)(Cc1ccccc1)NC(=O)[C@H](CO)NC(=O)CNC(=O)[C@H](CCC(=O)O)NC(=O)C(C)(C)NC(=O)[C@@H](N)Cc1c[nH]cn1)[C@@H](C)O)C(C)C)C(=O)N[C@@H](CC(C)C)C(=O)N[C@@H](CCC(=O)O)C(=O)NCC(=O)N[C@@H](CCC(=O)O)C(=O)N[C@@H](C)C(=O)N[C@@H](C)C(=O)N[C@@](C)(CCCCN)C(=O)N[C@@H](CCC(=O)O)C(=O)N[C@@H](Cc1ccccc1)C(=O)N[C@H](C(=O)N[C@@H](C)C(=O)N[C@@H](Cc1c[nH]c2ccccc12)C(=O)N[C@@H](CCCCNC(=O)COCCOCCNC(=O)COCCOCCNC(=O)CC[C@H](NC(=O)CCCCCCCCCCC)C(=O)O)C(=O)N[C@H](C(=O)N[C@@H](CCC(=O)O)C(=O)NCC(=O)NCC(N)=O)C(C)C)[C@@H](C)CC)C(=O)O [compound 264] (H-H[Aib]EGS[αMeF]TSDV[αMeS]SK([AEEA-AEEA-γGlu-Lauroyl])LEGEAA[αMeK]EFIAWK([AEEA-AEEA-γGlu-Lauroyl])VEGG-NH2; N-terminus assumed)
10000,9350,10700,≥ 25,96,124,150,≥ 25,≥ 25,,,,,,,,,,,CC[C@H](C)[C@H](NC(=O)[C@](C)(Cc1ccccc1)NC(=O)[C@H](CCC(=O)O)NC(=O)[C@H](CCCCNC(=O)COCCOCCNC(=O)COCCOCCNC(=O)CC[C@H](NC(=O)CCCCCCCCCCCCCCCCC(=O)O)C(=O)O)NC(=O)[C@H](C)NC(=O)[C@H](C)NC(=O)[C@H](CCC(=O)O)NC(=O)CNC(=O)[C@H](CCC(=O)O)NC(=O)[C@H](CC(C)C)NC(=O)[C@](C)(Cc1ccccc1)NC(=O)[C@H](CO)NC(=O)[C@](C)(CO)NC(=O)[C@@H](NC(=O)[C@H](CC(=O)O)NC(=O)[C@H](CO)NC(=O)[C@@H](NC(=O)[C@](C)(Cc1ccccc1)NC(=O)[C@H](CO)NC(=O)CNC(=O)[C@H](CCC(=O)O)NC(=O)C(C)(C)NC(=O)[C@@H](N)Cc1c[nH]cn1)[C@@H](C)O)C(C)C)C(=O)N[C@@H](C)C(=O)N[C@@H](Cc1c[nH]c2ccccc12)C(=O)N[C@H](C(=O)N[C@H](C(=O)N[C@@](C)(CCCCN)C(=O)NCC(=O)NCC(N)=O)C(C)C)C(C)C [compound 49] (H-H[Aib]EGS[αMeF]TSDV[αMeS]S[αMeF]LEGEAAK([AEEA-AEEA-γGlu-C18 diacid])E[αMeF]IAWVV[αMeK]GG-NH2; N-terminus assumed)
